Experimental data reported in patent US4650760A, “Modified alkaline phosphatase” (Research Corporation, priority 1985, dated 1987).

Assays:
[1] = biological target: native bacterial alkaline phosphatase (BAP) (Escherichia coli, UniProt P00634); settings: 2.6×10^-6 M enzyme, 0.5 M NaCl, 0.025 M Tris, pH 7.5
Description: (§1) Enzyme was incubated with EDTA; conditions- 2.6×10^-6 M enzyme, -0.015 M EDTA, 0.5 M NaCl, 5×10^-4 M Mg(II), 5×10^-5 M Zn(II), 5×10^-4 M spermidine, 0.025 M Tris, pH 7.5. Aliquots were withdrawn at the indicated time points and enzymatic activity in the standard phosphohydrolase assay (Appleburg, M. L. and J. E. Coleman J. Biol. Chem. 244: 308 (1969)) was determined. Data are shown as the per cent of the initial activity remaining at the times indicated. […] Enzyme was harvested and activity determined.
(§2) Following inactivation, samples of th enzymes were dialyzed against buffer solutions containing Zn(II) and Mg(II) ions (arrow in FIG. 14).

[2] = biological target: E. coli alkaline phosphatase, trypsin-modified (tm-AP) (Escherichia coli, UniProt P00634); settings: 2.6×10^-6 M enzyme, 0.5 M NaCl, 0.025 M Tris, pH 7.5
Description: as §1, §2

[3] = biological target: alkaline phosphatase isolated from leukocytes (Homo sapiens, UniProt P05186); settings: 0.02M EDTA; cited from earlier work
alkaline phosphatase isolated from leukocytes, sequence (P05186 18-502 limits assumed): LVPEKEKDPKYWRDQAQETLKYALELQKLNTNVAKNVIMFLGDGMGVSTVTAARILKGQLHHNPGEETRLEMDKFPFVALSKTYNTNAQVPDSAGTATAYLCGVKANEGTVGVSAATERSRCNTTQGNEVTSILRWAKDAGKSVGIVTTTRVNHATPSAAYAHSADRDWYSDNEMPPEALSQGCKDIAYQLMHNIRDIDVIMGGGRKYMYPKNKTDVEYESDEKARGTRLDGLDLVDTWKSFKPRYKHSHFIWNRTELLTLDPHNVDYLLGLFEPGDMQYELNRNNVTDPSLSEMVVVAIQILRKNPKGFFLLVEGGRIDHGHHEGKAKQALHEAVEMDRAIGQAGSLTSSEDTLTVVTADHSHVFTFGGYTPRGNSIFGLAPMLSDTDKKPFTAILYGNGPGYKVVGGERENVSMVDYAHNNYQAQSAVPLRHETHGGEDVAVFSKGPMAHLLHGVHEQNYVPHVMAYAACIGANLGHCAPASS

E. coli alkaline phosphatase, trypsin-modified (tm-AP), sequence (P00634 33-471): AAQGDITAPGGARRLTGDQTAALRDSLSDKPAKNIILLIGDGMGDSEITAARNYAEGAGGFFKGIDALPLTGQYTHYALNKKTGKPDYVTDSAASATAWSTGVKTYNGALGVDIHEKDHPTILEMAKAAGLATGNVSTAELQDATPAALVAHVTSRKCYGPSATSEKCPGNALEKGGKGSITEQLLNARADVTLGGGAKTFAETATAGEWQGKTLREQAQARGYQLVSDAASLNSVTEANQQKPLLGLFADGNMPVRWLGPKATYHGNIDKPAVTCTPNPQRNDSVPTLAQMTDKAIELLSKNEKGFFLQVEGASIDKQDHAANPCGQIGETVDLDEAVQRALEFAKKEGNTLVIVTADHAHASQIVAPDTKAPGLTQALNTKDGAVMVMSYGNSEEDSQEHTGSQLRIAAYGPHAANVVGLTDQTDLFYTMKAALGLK
native bacterial alkaline phosphatase (BAP), sequence (P00634 22-471): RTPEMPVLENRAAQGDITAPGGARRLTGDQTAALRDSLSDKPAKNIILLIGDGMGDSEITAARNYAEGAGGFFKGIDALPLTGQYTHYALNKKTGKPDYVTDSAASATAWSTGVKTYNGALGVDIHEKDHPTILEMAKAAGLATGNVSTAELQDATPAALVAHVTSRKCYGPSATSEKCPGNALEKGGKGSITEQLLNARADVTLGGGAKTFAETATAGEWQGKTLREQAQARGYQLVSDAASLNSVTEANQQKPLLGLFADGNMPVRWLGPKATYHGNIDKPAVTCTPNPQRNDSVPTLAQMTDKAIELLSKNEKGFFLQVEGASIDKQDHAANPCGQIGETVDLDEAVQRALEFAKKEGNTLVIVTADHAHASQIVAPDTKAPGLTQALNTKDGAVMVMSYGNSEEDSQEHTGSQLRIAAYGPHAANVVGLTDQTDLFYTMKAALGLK

O=C(O)CN(CCN(CC(=O)O)CC(=O)O)CC(=O)O [EDTA, ethylene diamine tetraacetic acid]
time required for inactivation on exposure to EDTA [1]: 3.5 h | time until activity is reduced to zero on exposure to EDTA [2]: 1.5 h | inhibition after incubation with EDTA [3]: 50%
